Reference: BindingDB's records for patent US10961200 (Department Of Health And Human Services, 2021)

Molecular target: L-lactate dehydrogenase A chain (Homo sapiens, UniProt P00338)
Test: Biochemical Assay
From the text: Test compounds were placed in a Greiner Bio-One (Monroe, N.C.) 1536-well black solid bottom assay plate. 200 millimolar (mM) Tris HCl, pH 7.4, 100 micromolar (M) EDTA and 0.01% TWEEN-20 , final concentration, was used as the assay buffer. The LDHA reagent was 2 nanomolar (nM) Human LDHA (Meridian Life Science, Inc., Memphis, Tenn.), final concentration, in assay buffer.

SMILES | IC50 [nM]
NS(=O)(=O)c1ccc(Cc2c(-c3cccc(Nc4ccccc4)c3)nn(-c3nc(C(=O)O)cs3)c2CC2CC2)cc1 [US10961200, Compound 485] | < 100
CC(C)Oc1cccc(-c2nn(-c3nc(C(=O)O)cs3)c(CC3CC3)c2Cc2ccc(S(N)(=O)=O)cc2)c1 [US10961200, Compound 504] | < 100
NS(=O)(=O)c1ccc(Cc2cn(-c3nc(C(=O)O)cs3)nc2-c2ccc(F)c(-c3ccccc3)c2)cc1 [US10961200, Compound 515] | < 100
